In brackets after ≈: the same amount, converted by molar mass.
What was measured:
MCF7 = assay: Growth inhibition of human MCF7 cells; format: functional
KM-20L2 = assay: Growth inhibition of human KM20L2 cells; format: functional

GI50 (MCF7): 0.72 µg/mL (≈ 1.14 µM)
Compound: CO[C@@H]1[C@@H](O)[C@@H](OC)[C@H](O[C@@H]2C[C@]3(O)O[C@H](C[C@H](OC)/C=C(\C)C[C@@H](/C=C/C=C/Br)OC(=O)[C@H]3C)[C@H]2C)O[C@H]1C [DOLASTATIN 19]
GI50 (KM-20L2): 0.76 µg/mL (≈ 1.2 µM)
